Assay [1] has as its target T1, cytoplasmic domain of the human CSF-1R (Homo sapiens, UniProt P07333).
T1 construct: Recombinant protein corresponding to the cytoplasmic domain of the human CSF-1R; purchased Invitrogen Corporation, Carlsbad, Calif; PV3249
T1 sequence (P07333 539-972 limits assumed): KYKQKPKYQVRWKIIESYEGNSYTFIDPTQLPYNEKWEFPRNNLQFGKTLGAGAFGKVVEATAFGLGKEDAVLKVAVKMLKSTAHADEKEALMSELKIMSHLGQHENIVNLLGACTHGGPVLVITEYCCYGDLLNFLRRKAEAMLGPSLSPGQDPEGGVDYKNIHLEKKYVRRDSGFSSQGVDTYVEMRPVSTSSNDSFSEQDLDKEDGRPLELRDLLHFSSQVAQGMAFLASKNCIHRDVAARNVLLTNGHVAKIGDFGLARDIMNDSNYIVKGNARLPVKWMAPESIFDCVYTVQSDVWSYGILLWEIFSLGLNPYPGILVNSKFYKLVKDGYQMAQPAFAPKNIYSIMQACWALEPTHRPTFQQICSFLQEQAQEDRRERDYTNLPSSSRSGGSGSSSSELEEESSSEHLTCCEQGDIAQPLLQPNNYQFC
Put plainly: In vitro kinase assay for colony stimulating factor-1 receptor (AlphaScreen). The format is biochemical. Particulars: tested at about 1 μM; for CSF-1R percent inhibition: compounds of Table 4; for inhibition at 1 µM: read-out: CSF-1R percent inhibition. As to the method:
The kinase activity of various protein tyrosine kinases can be measured by providing ATP and a suitable peptide or protein tyrosine-containing substrate, and assaying the transfer of phosphate moiety to the tyrosine residue. Recombinant protein corresponding to the cytoplasmic domain of the human CSF-1R was purchased from Invitrogen Corporation, Carlsbad, Calif. U.S.A. (#PV3249). For each assay, test compounds were serially diluted, starting at 25 μM with 3 fold dilutions, in DMSO in 384 well plates then mixed with an appropriate kinase reaction buffer consisting of 50 mM Hepes, 5 mM MgCl2, 10 mM MnCl2, 0.1% BSA, pH 7.5, 1.0 mM dithiothreitol, 0.01% Tween 80 plus 1 μM ATP. […] Added to the stopped reaction mix was 30 μL of PT66 Alphascreen beads (Perkin Elmer, Boston, Mass., U.S.A.). The reaction was incubated overnight and read on the Envision (Perkin Elmer). Phosphorylated peptide product was measured with the AlphaScreen system (Perkin Elmer) using acceptor beads coated with anti-phosphotyrosine antibody PT66 and donor beads coated with streptavidin that emit a fluorescent signal at the 520-620 nm emission wave length if in close proximity.
CSF-1R kinase was added at final concentration of 4 nM.

The next assay concerns the target T2, kinase domain of cKIT (Homo sapiens, UniProt P10721).
T2 construct: The kinase domain of cKIT was assayed in 50 mM Hepes; purchased Upstate 14-559
Put plainly: Inhibition of cKIT kinase signaling in an in vitro biochemical assay (alphascreen). Particulars: tested at about 1 μM; for cKit percent inhibition: compounds of Table 4; for inhibition at 1 µM: read-out: cKit percent inhibition. Here is the method:
(§1) The IC50 values for the inhibition of RTKs were determined in the alphascreen format measuring the inhibition by compound of phosphate transfer to a substrate by the respective enzyme. Briefly, the respective RTK domain purchased as human recombinant protein (cKIT Upstate #14-559, PDGFRb Invitrogen #P3082) were incubated with serial dilutions of compound in the presence of substrate and ATP concentrations within 3 times the Km of the enzyme.
(§2) Alphascreen PY20 beads were added to the stopped cKIT reactions and PY20 Ab/Protein A Alphascreen beads were added to the PDGFRβ stopped reactions. Both reactions were incubated overnight and read on the Alphascreen reader.
On the technique in general: Alpha assays give light when donor and acceptor beads are brought close together.

A further assay addresses T3, kinase domain of PDGFRβ (Homo sapiens, UniProt P09619).
T3 construct: The kinase domain of PDGFRβ was assayed in 50 mM Hepes; purchased Invitrogen P3082
The assay is described as follows: Inhibition of PDGFRb kinase signaling in an in vitro biochemical assay (alphascreen). Particulars: tested at about 1 μM; for inhibition at 1 µM: read-out: PDGFRβ percent inhibition. As to the method:
as §1, §2

The results in this text go back to patent US8173689B2 (Novartis AG, priority 2006, dated 2012).

Like-named read-outs stand apart in the source and are kept apart here.

T2 sequence (P10721 589-937 limits assumed): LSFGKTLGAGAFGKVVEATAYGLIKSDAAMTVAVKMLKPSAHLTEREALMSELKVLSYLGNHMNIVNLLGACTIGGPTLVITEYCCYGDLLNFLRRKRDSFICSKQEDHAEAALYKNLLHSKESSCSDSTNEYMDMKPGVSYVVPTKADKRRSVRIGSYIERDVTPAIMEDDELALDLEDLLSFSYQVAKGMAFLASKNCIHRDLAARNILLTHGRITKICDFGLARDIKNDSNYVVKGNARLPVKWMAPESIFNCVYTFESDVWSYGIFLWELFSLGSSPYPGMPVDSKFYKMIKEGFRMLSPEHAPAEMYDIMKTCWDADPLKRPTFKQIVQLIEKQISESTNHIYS
T3 sequence (P09619 600-962 limits assumed): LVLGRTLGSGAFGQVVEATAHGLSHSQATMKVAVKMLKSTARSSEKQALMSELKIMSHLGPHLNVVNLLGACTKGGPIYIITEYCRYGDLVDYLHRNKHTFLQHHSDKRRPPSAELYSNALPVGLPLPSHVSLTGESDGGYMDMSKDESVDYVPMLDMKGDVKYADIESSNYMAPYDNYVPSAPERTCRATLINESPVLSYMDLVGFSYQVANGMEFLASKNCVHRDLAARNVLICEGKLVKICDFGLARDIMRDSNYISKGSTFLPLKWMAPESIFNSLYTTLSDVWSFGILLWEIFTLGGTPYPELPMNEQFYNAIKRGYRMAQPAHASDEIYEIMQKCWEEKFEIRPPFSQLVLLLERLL

As for “4-(2-Cyclobutylamino- benzooxazol-6-yloxy)- pyridine-2-carboxylic acid methylamide [Compound 22]”, the CSF-1R percent inhibition in assay [1] was 100%. The same compound yielded a cKit percent inhibition on kinase domain of cKIT of 89%. At kinase domain of PDGFRβ (compounds of Table 4), this compound displayed a PDGFRβ percent inhibition of 90%.
In assay [1], “4-[2-(Benzo[1,3]dioxol-5-yl- amino)-benzooxazol-6- yloxy]-pyridine-2-carboxylic acid methylamide [Compound 95]” had a CSF-1R percent inhibition of 100%. The compound further gave a cKit percent inhibition at kinase domain of cKIT of 42%.
For `O[C@@H]1CCCC[C@H]1Nc1nc2ccc(Oc3ccnc(C4CC4)c3)cc2s1` [Cmpd 169, (1R,2R)-2-(6-(2-cyclopropylpyridin-4-yloxy)benzo[d]thiazol-2-ylamino)cyclohexanol], the results for the inhibition at 1 µM (in assay [1] (compounds of Table 3); on kinase domain of cKIT (compounds of Table 3); at kinase domain of PDGFRβ (compounds of Table 3)) were 75%, 12% and 0%, respectively.
On the same counts, the results for `O[C@@H]1CCCC[C@H]1Nc1nc2ccc(Oc3ccnc(N4CCCCC4)c3)cc2s1` [Cmpd 174, (1R,2R)-2-(6-(2-(piperidin-1-yl)pyridin-4-yloxy)benzo[d]thiazol-2-ylamino)cyclohexanol] are 86%, 18% and 3%.
The matching figures for `CN1CCN(c2cc(Oc3ccc4nc(N[C@@H]5CCCC[C@H]5O)sc4c3)ccn2)CC1` [Cmpd 176, (1R,2R)-2-(6-(2-(4-methylpiperazin-1-yl)pyridin-4-yloxy)benzo[d]thiazol-2-ylamino)cyclohexanol]: 63%, 12% and 0%.
On the same counts, the results for `CC(=O)N[C@@H]1CCN(c2cc(Oc3ccc4nc(N[C@@H]5CCCC[C@H]5O)sc4c3)ccn2)C1` [Cmpd 177, N-((R)-1-(4-(2-((1R,2R)-2-hydroxycyclohexylamino)benzo[d]thiazol-6-yloxy)pyridin-2-yl)pyrrolidin-3-yl)acetamide] are 67%, 15% and 0%.
Take `CC(=O)N[C@H]1CCN(c2cc(Oc3ccc4nc(N[C@@H]5CCCC[C@H]5O)sc4c3)ccn2)C1` [Cmpd 178, N-((S)-1-(4-(2-((1R,2R)-2-hydroxycyclohexylamino)benzo[d]thiazol-6-yloxy)pyridin-2-yl)pyrrolidin-3-yl)acetamide]: the values for the inhibition at 1 µM (in assay [1] (compounds of Table 3); on kinase domain of cKIT (compounds of Table 3); on kinase domain of PDGFRβ (compounds of Table 3)) were 82%, 17% and -3%, respectively.
Consider `CNC(=O)c1cc(Oc2ccc3nc(NC(C)c4nccs4)oc3c2)ccn1` (stereo not drawn) [Compound 6, 4-[2-(1-Thiazol-2-yl-ethylamino)-benzooxazol-6-yloxy]-pyridine-2-carboxylic acid methylamide], for which the inhibition at 1 µM in assay [1] came out at 85%.
Regarding `CN(C)C(=O)c1cc(Oc2ccc3nc(N[C@@H]4CCCC[C@H]4O)sc3c2)ccn1` [Compound 10], the inhibition at 1 µM in assay [1] (compounds of Table 3) was found to be 67%; at kinase domain of cKIT (compounds of Table 3) it was 0%; on kinase domain of PDGFRβ (compounds of Table 3), 9%.
On to `CNC(=O)c1cc(Oc2ccc3nc(N[C@@H](C)c4ccc5ccccc5c4)oc3c2)ccn1` [Compound 20, 4-[2-((S)-1-Naphthalen-2-yl-ethylamino)-benzooxazol-6-yloxy]-pyridine-2-carboxylic acid methylamide], for which the inhibition at 1 µM in assay [1] is 15%; at kinase domain of PDGFRβ, 0%.
Regarding `CCN1CCC[C@H]1CNC(=O)c1cc(Oc2ccc3nc(N[C@@H]4CCCC[C@H]4O)sc3c2)ccn1` [Compound 20], the inhibition at 1 µM worked out at 76% in assay [1] (compounds of Table 3), 0% on kinase domain of cKIT (compounds of Table 3) and 0% on kinase domain of PDGFRβ (compounds of Table 3).
On to `CNC(=O)c1cc(Oc2ccc3nc(NC4CCCC4)oc3c2)ccn1` [Compound 23, 4-(2-Cyclopentylamino-benzooxazol-6-yloxy)-pyridine-2-carboxylic acid methylamide], for which the inhibition at 1 µM in assay [1] was found to be 50%; at kinase domain of PDGFRβ, 0%.
As to `CNC(=O)c1cc(Oc2ccc3nc(NC4CCOCC4)oc3c2)ccn1` [Compound 30, 4-[2-(Tetrahydro-pyran-4-yl-amino)-benzooxazol-6-yloxy]-pyridine-2-carboxylic acid methylamide], the inhibition at 1 µM amounted to 25% in assay [1] and 14% at kinase domain of PDGFRβ.
Regarding `CNC(=O)c1cc(Oc2ccc3nc(N[C@@H](C(=O)O)c4ccccc4)oc3c2)ccn1` [Compound 35, (R)-[6-(2-Methylcarbamoyl-pyridin-4-yloxy)-benzooxazol-2-ylamino]-phenyl-acetic acid], the inhibition at 1 µM in assay [1] was found to be 19%; at kinase domain of PDGFRβ it was 9%.
With `CNC(=O)c1cc(Oc2ccc3nc(N[C@@H](C(=O)NC)c4ccccc4)oc3c2)ccn1` [Compound 36, 4-{2-[((R)-Methylcarbamoyl-phenyl-methyl)-amino]-benzo-oxazol-6-yloxy}-pyridine-2-carboxylic acid methylamide], the inhibition at 1 µM in assay [1] turned out to be 78%; at kinase domain of cKIT, 0%; on kinase domain of PDGFRβ it was 6%.
For `CNC(=O)c1cc(Oc2ccc3nc(N[C@@H](CO)c4ccccc4)oc3c2)ccn1` [Compound 37, 4-[2-((R)-2-Hydroxy-1-phenyl-ethylamino)-benzooxazol-6-yloxy]-pyridine-2-carboxylic acid methylamide], the inhibition at 1 µM amounted to 79% in assay [1] and 16% at kinase domain of PDGFRβ.
On the same counts, the results for `CNC(=O)c1cc(Oc2ccc3nc(N[C@H](C(=O)O)c4ccccc4)oc3c2)ccn1` [Compound 38, (S)-[6-(2-Methylcarbamoyl-pyridin-4-yloxy)-benzooxazol-2-ylamino]-phenyl-acetic acid] are 34% and 14%.
On the same counts, the results for `CNC(=O)c1cc(Oc2ccc3nc(N[C@H](C(=O)NC)c4ccccc4)oc3c2)ccn1` [Compound 39, 4-{2-[((S)-Methylcarbamoyl-phenyl-methyl)-amino]-benzooxazol-6-yloxy}-pyridine-2-carboxylic acid methylamide] are 67% and 10%.
On the same counts, the results for `CNC(=O)c1cc(Oc2ccc3nc(Nc4ccccc4CCN4CCCC4)oc3c2)ccn1` [Compound 43, 4-{2-[2-(2-Pyrrolidin-1-yl-ethyl)-phenylamino]-benzooxazol-6-yloxy}-pyridine-2-carboxylic acid methylamide] are 26% and 15%.
With `CNC(=O)c1cc(Oc2ccc3nc(Nc4ccccc4-n4cnc(C)c4)oc3c2)ccn1` [Compound 45, 4-{2-[2-(4-Methyl-imidazol-1-yl)-phenylamino]-benzooxazol-6-yloxy}-pyridine-2-carboxylic acid methylamide], the inhibition at 1 µM in assay [1] came to 11%; on kinase domain of PDGFRβ, 14%.
For `CNC(=O)c1cc(Oc2ccc3nc(N[C@H]4c5ccccc5C[C@H]4O)oc3c2)ccn1` [Compound 49, 4-[2-((1S,2R)-2-Hydroxy-indan-1-ylamino)-benzooxazol-6-yloxy]-pyridine-2-carboxylic acid methylamide], the figures for the inhibition at 1 µM (in assay [1]; at kinase domain of cKIT; on kinase domain of PDGFRβ) were 55%, 63% and 25%, respectively.
On the same counts, the results for `CNC(=O)c1cc(Oc2ccc3nc(N[C@H](CCO)c4ccccc4)oc3c2)ccn1` [Compound 51, 4-[2-((R)-3-Hydroxy-1-phenyl-propylamino)-benzooxazol-6-yloxy]-pyridine-2-carboxylic acid methylamide] are 95%, 40% and 2%.

By inhibition is commonly meant the change of the read-out against control, counted positive when it falls.
